The subject of series [1] is T. cruzi Tulahuen lacZ strain. As to the kind of experiment: Anti-T. cruzi activity, intracellular amastigotes in HFF-1 cells, beta-galactosidase/CPRG readout. The note with it: Trypanosoma cruzi, HFF-1, 120 h.
Excerpt: The evaluation utilized the genetically modified T. cruzi Tulahuen lacZ strain, engineered to express the lacZ gene encoding β‐galactosidase. Viable intracellular parasites express this enzyme, which hydrolyzes the substrate chlorophenol red‐β‐D‐galactopyranoside (CPRG) to release chlorophenol red, a chromogenic product quantified spectrophotometrically at 570 nm. The absorbance intensity directly correlates with the number of metabolically active parasites present during the assay.
Axenic cultures of T. cruzi epimastigotes (strain MHOM/CH/00/Tulahuen C2, lacZ) were grown in LIT medium containing 10% fetal calf serum (FCS) at 28°C. During the exponential growth phase, parasites were collected via centrifugation (250 × g, 10 min), resuspended in Grace's insect medium supplemented with 10% FCS, and differentiated into metacyclic trypomastigotes over 5–14 days. Differentiated parasites were harvested and used to infect Human Foreskin Fibroblasts (HFF‐1), cultured in Dulbecco's Modified Eagle Medium (DMEM) with 10% FCS under 5% CO2 at 37°C.
For infection assays, HFF‐1 cells were plated in 96‐well plates (5 × 10⁴ cells/well) in 80 µL phenol red‐free DMEM and incubated overnight. Metacyclic trypomastigotes (5 × 10⁵ parasites/well in 20 µL) were added, followed by 24‐hour incubation. After this period, trypomastigotes differentiate into intracellular amastigotes. Non‐infective parasites were removed by replacing the medium with 100 µL fresh DMEM. Test compounds, at varying concentrations, were then applied to determine IC50 values against intracellular amastigotes, with benznidazole as the positive control. After 5 days of incubation (37°C, 5% CO2), 50 µL of 1 mM CPRG and 0.1% IGEPAL CA‐630 (a non‐ionic detergent) were added. β‐Galactosidase activity, reflecting parasite viability, induced a colorimetric shift from yellow to red, measured at 570 nm. Growth inhibition percentages were calculated relative to untreated controls. Benznidazole was used as the positive control and DMSO as the negative control.
Series [2] deals with Candida albicans (ATCC 64548). As to the kind of experiment: Antifungal broth microdilution (CLSI M27A3), MIC. To be noted: for MIC: Candida albicans, ATCC64548, read-out: minimum inhibitory concentration (MIC). The class given is cell-based. Here is the method: The antifungal activity of compounds 1–5, 7–11 was evaluated using the broth microdilution method in 96‐well plates, following the Clinical Laboratory Standard Institute (CLSI) guidelines M27A3 [35, 36], with minor modifications. The assay was performed against Candida auris (CDC B11903), Candida parapsilosis (ATCC 22019), and Candida albicans (ATCC 64548), and based on the determination of the minimum inhibitory concentration (MIC).
Each compound was initially dissolved in DMSO at a stock concentration 100 times higher than the highest concentration tested. Working solutions were subsequently prepared in RPMI 1640 culture medium (pH 7.0), supplemented with L‐glutamine, devoid of bicarbonate, and containing phenol red as a pH indicator, to yield a 2 × concentration. Serial two‐fold dilutions were made to obtain final concentrations ranging from 3.125 to 200.00 µg/mL. Fluconazole was used as a reference antifungal control.
Aliquots of 100 µL of each 2 × test solution were dispensed into the wells of the microdilution plates. Fungal suspensions were prepared in autoclaved distilled water and adjusted to a final concentration of 5.0 × 10^3 conidia or blastoconidia/mL. After inoculation, plates were incubated at 37°C. Fungal growth was visually assessed after 24 and 48 h. […] All assays were performed in duplicate.
(In general: Broth dilution looks for growth in wells or tubes with falling amounts of substance.)

The nature of series [3]: Cytotoxicity assay, MTS. The class given is cell-based. The note with it: human, HFF-1, 120-hour incubation, maximum tested 64 µM. Here is the method:
Cytotoxicity assays: HFF‐1 fibroblasts (provided by Rio de Janeiro Cell Bank (BCRJ)) were seeded at a density of 2 × 10^3 cells per well in 100 µL of DMEM and incubated overnight at 37°C in a 5% CO2 atmosphere. Subsequently, test compounds were added in serial dilutions, followed by a 120‐hour incubation period under the same conditions. Each plate included negative controls and doxorubicin as a positive control. After incubation, 15 µL of MTS reagent (CellTiter96) was added to each well, and plates were incubated for an additional 4 h. Absorbance was measured at 490 nm using a microplate reader. The percentage of growth inhibition was calculated relative to the absorbance of the negative control wells.

The target of series [4] is T1, papain (Carica papaya, UniProt P00784).
T1 construct: purchased
T1 sequence (P00784 134-345): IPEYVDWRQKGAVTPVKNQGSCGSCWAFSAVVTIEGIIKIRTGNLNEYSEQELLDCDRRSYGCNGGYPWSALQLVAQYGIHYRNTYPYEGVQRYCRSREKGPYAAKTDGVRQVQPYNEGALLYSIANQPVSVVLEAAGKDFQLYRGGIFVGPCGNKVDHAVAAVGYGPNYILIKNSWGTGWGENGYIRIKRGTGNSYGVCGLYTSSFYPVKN
As to the kind of experiment: Papain inhibition, fluorometric Z-Phe-Arg-MCA assay. The class given is biochemical. To be noted: for inhibition at 100 µM: read-out: % inhibition (100 µM). On the procedure: Compounds 1, 2, 4, and 7–11 were tested against papain inhibitory activity. Papain served as the model cysteine protease in the protease inhibition assay. Enzyme activity was assessed via real‐time fluorometric monitoring of 7‐amino‐4‐methylcoumarin (MCA) release during substrate cleavage. Hydrolysis of the fluorogenic substrate Z‐Phe‐Arg‐MCA (ZFR‐MCA) was tracked in black 96‐well plates using a spectrofluorometer (λex/λem = 380/460 nm) (SpectraMax M3, Molecular Devices).
Each reaction well contained 5 µL papain (80 nM), 2 µL dithiothreitol (DTT, 500 mM), and 158 µL sodium acetate buffer (100 mM, pH 5.5, 5 mM EDTA). After a 5‐minute pre‐incubation at 27°C, 5 µL of test compound (dissolved in DMSO) or DMSO (negative control) was added. In the initial screening, all compounds were tested at a fixed concentration of 100 µM to evaluate their inhibitory potential. Following a second 5‐minute incubation at 27°C, 30 µL ZFR‐MCA (0.6 mM) was added, and fluorescence was recorded every 300 s using a SpectraMax M3 microplate reader (Molecular Devices). This concentration guided subsequent serial dilutions to determine the IC50 (half‐maximal inhibitory concentration).
For this, a serial dilution series was prepared from the active compounds, and the assay was conducted as previously described. Final assay conditions (200 µL/well) yielded effective compound concentrations of 100 µM to 1.56 µM for IC50 determination. Papain's molar concentration was validated via titration with the irreversible inhibitor E‐64 (positive control) from 1.0 µM to 31.25 nM. All experiments included triplicate measurements across two independent trials (total n = 6).

The target in series [5] is T1, papain. The arrangement: method as in earlier work. To be noted: at 200 µM; cited from earlier work.
Series [6] has as its system plant-parasitic nematode. The arrangement: method as in PMID 27990770. The note with it: cited from earlier work.
Series [7] deals with bacteria. Also noted: method as in PMID 21497643. To be noted: cited from earlier work.
In series [8] the test system is Cryphonectria parasitica. The arrangement: method as in PMID 11052720. The note with it: against Cryphonectria parasitica; cited from earlier work.
Series [9] addresses T1, papain. Also noted: method as in PMID 32189177. The note with it: at a concentration of 50 µM, cited from earlier work.

In brackets after ≈: the same amount, converted by molar mass. Read-outs that look alike come from different tables or passages of the source. A value given as a limit tells only on which side of the number the result lay.

As usually defined, the IC50 is the concentration that gives 50% inhibition. For `O=C(Cn1ccnc1[N+](=O)[O-])NCc1ccccc1` [Benznidazole, reference compound], the 50% inhibitory concentration (IC50) in series [1] is 2.24 ± 0.9 µM.

As usually defined, the CC50 is the concentration at which the toxic effect on the cells reaches its halfway point. A lower CC50 goes with harm at low concentration. In general, inhibition refers to the share of the control response that was lost under treatment. As for `CCCCc1ccc(C(=O)[O][Mg][O]C(=O)c2ccc(CCCC)cn2)nc1` [Compound 2, magnesium complex of fusaric acid], in series [2], the MIC came out at 50 µg/mL. The IC50 in [1] is 12.2 ± 0.4 µM; in [4] (papain), 17.5 µM. Moreover, the CC50 at 120 h in series [3] is above 64 µM. For the same compound, in series [4], the inhibition at 100 µM turned out to be 94 ± 7.9%.

In the case of `CSC12CC3=CC=CC(OC(C)=O)C3N1C(=O)C1(SC)CC3=CC=CC(OC(C)=O)C3N1C2=O` (centres unmarked) [Compound 4, haematocin], the MIC in series [2] was 100 µg/mL (≈ 199 µM). The compound also showed an IC50 in series [1] of 13.3 ± 1 µM. The same compound returned a CC50 at 120 h in series [3] above 64 µM. For the same compound, in series [4], the IC50 was determined as 47.7 µM and the inhibition at 100 µM turned out to be 76.6%.

On to `CCCCc1ccc(C(=O)O)nc1` [Compound 5, fusaric acid], for which the papain inhibition in series [5] was 58%. In series [1], inhibition was half-maximal at 20.9 ± 0.3 µM (IC50). For the same compound, the CC50 at 120 h in [3] is above 64 µM.

With `C[C@@H](O)CCc1ccc(C(=O)O)nc1` [Compound 7, (R)‐fusarinolic acid], the plant-parasitic nematode activity result in series [6] was “no significant activity”. The 50% inhibitory concentration (IC50) in series [1] is 60.07 ± 0.6 µM. In series [7], the antibacterial activity result is recorded as “no significant activity”. Moreover, the CC50 at 120 h in series [3] (HFF-1 fibroblasts) was above 64 µM.

For `CC(C)=CCCC(C)(O)C1CCC(C)(O)C1C` (centres unmarked) [Compound 8, cyclonerodiol], the antifungal activity entry in [8] was “weak antifungal activity”. The IC50 in series [1] is 22.7 ± 1.1 µM; in [4] (papain, read-out: IC50), 25.9 µM. The CC50 at 120 h in [3] (HFF-1 fibroblasts) is above 64 µM. For the same compound, the inhibition at 100 µM in [4] (papain, compound at 100 µM) was 89%.

Regarding `CC(C)C[C@H](NC(=O)[C@H]1O[C@@H]1C(=O)O)C(=O)NCCCCN=C(N)N` [E‐64, reference compound], the IC50 in [4] (papain, positive control, read-out: IC50) came out at 0.0072 µM.

For the compound `CC(C)C[C@@H]1NC(=O)[C@@H]2CCCN2C1=O` [cyclo(L‐Leu‐L‐Pro) diketopiperazine], in [9] (50 µM), the papain inhibition is on record as 3%.

Regarding `CC(C)[C@@H]1NC(=O)[C@@H]2CCCN2C1=O` [cyclo(L‐Val‐L‐Pro)], in series [9], the papain inhibition is recorded as 10%.

With “Iron complex of fusaric acid [Compound 1]”, the “minimum inhibitory concentration (MIC)” value in series [2] (C. albicans, tested 3.125 to 200.00 µg/mL) came to 100 µg/mL. The “% inhibition (100 µM)” value in series [4] (papain, compound at 100 µM, 100 µM) is reported as 88.6%. Further, the IC50 in series [4] (papain, read-out: IC50) worked out at 14.1 µM.

The values above are taken from publication PMC12715984, “Co‐cultivation and Medium Optimization: A Strategy for Discovering Fungal‐derived Protease Inhibitors” (Chemistry & Biodiversity, 2025).
